What was measured:
[1] = system: bovine cardiac myofibrils; experiment: Myofibril assay (ATPase activity of skinned bovine cardiac myofibrils, PK/LDH-coupled); type: biochemical; conditions: inhibition of steady-state ATPase of bovine cardiac myofibrils; CaCl2 for 50% or 75% activation
Outline: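 Steady-state ATPase of detergent-skinned bovine left-ventricular myofibrils (1 mg/mL), PK/LDH-coupled NADH read at 340 nm, in PIPES/MgCl2 buffer pH 6.8 with 50 μM ATP, 0.6 mM EGTA and CaCl2 set for 50% or 75% activation. Inhibition of activity measured.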

[2] = biological target: T1, CYP2B6 (Homo sapiens, UniProt P20813); experiment: Time-dependent inhibition of CYP2B6 in human liver microsomes; type: in vitro ADME; conditions: fold change
T1 construct: Pooled human microsomes and selective CYP probe substrates were used; from tissue; host or cells: pooled human liver microsomes
T1 sequence (P20813 1-491): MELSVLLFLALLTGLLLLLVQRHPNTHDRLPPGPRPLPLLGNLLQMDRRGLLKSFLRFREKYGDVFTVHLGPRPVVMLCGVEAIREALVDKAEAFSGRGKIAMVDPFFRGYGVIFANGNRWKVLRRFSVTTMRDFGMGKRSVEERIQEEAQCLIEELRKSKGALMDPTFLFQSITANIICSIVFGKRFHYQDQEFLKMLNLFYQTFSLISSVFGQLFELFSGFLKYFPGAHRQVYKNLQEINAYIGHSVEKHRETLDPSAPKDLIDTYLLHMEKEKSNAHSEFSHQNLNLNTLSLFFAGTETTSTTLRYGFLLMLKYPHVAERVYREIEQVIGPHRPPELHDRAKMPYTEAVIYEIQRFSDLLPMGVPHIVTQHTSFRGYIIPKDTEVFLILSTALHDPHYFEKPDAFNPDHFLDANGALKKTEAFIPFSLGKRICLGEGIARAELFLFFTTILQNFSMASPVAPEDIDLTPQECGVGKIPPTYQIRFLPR
Description: (§1) An assessment of the time-dependent Inhibitory Potential of the test compounds against Principal Human Cytochrome P450 Isozymes using Human Liver Microsomes was also carried out using standard methods (Grimm et al, Drug Metab. Dispos., July; 37(7):1355-70. doi: 10.1124/dmd.109.026716, 2009). Pooled human microsomes and selective CYP probe substrates were used for in vitro assessment of test compounds at 25 and 50 μM as time-dependent inhibitors of […] human hepatic cytochrome P450 isozymes (CYP1A2, 2B6, 2C9, 2C19, 2D6, and 3A4). LC-MS/MS was used to quantify metabolite formation. The inhibition of each P450 enzyme in human liver microsomes was measured as the percentage decrease in the activity of marker metabolite formation as measured by LC-MS/MS compared to non-inhibited controls (=100% activity) at time zero and after 30 minutes incubation. The occurrence of any time dependent inhibition was then expressed as the fold change in enzyme activity at time zero relative to the activity after 30 minutes incubation.

[3] = biological target: T2, CYP2C19 (Homo sapiens, UniProt P33261); experiment: Time-dependent inhibition of CYP2C19 in human liver microsomes; type: in vitro ADME; conditions: fold change
T2 construct: Pooled human microsomes and selective CYP probe substrates were used; from tissue; host or cells: pooled human liver microsomes
Description: as §1

[4] = biological target: T3, CYP2D6 (Homo sapiens, UniProt P10635); experiment: Time-dependent inhibition of CYP2D6 in human liver microsomes; type: in vitro ADME; conditions: fold change
T3 construct: Pooled human microsomes and selective CYP probe substrates were used; from tissue; host or cells: pooled human liver microsomes
Description: as §1

T2 sequence (P33261 whole entry): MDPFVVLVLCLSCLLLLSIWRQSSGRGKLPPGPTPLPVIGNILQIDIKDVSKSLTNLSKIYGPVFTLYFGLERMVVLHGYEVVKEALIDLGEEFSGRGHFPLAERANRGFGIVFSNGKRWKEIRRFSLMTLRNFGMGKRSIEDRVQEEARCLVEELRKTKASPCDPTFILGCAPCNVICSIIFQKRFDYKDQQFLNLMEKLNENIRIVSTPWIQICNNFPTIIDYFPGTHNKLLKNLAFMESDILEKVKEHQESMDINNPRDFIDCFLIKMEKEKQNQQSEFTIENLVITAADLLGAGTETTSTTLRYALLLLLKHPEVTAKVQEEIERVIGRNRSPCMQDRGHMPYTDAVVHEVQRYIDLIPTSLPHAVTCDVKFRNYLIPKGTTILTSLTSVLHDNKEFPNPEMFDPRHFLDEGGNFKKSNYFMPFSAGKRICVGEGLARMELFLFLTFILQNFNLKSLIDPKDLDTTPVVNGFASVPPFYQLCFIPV
T3 sequence (P10635 whole entry): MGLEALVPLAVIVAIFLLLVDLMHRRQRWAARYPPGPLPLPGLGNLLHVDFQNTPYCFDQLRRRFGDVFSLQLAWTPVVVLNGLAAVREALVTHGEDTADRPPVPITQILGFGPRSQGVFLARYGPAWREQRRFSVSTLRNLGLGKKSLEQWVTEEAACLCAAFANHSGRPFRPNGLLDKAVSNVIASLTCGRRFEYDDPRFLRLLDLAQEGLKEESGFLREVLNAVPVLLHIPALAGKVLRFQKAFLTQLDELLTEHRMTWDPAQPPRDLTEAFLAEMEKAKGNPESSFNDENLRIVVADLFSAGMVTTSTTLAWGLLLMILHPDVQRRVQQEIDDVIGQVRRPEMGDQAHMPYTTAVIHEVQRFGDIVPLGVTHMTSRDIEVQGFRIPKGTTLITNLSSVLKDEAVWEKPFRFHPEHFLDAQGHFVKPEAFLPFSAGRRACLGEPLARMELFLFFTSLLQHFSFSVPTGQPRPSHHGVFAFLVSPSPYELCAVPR

CDMF IC15 [1]: 1500 nM
(% Activity NADPH T0)/(% Activity NADPH T30) ([2]; CYP2B6, 25 μM): 1.1
(% Activity NADPH T0)/(% Activity NADPH T30) ([2]; CYP2B6, 50 μM): 1.0
(% Activity NADPH T0)/(% Activity NADPH T30) ([3]; CYP2C19, 25 μM): 1.4
(% Activity NADPH T0)/(% Activity NADPH T30) ([3]; CYP2C19, 50 μM): 1.1
(% Activity NADPH T0)/(% Activity NADPH T30) ([3]; CYP2C19, 50 μM, listed as compound 4): no change in activity
(% Activity NADPH T0)/(% Activity NADPH T30) ([4]; CYP2D6, 25 μM): 1.3
(% Activity NADPH T0)/(% Activity NADPH T30) ([4]; CYP2D6, 50 μM): 1.1
(% Activity NADPH T0)/(% Activity NADPH T30) ([4]; CYP2D6, 50 μM, listed as compound 4): no change in activity
Structure (SMILES): C[C@H]1CC[C@H](N2CC(=O)N(Cc3ccc(F)c(F)c3)C3(CN(C=O)C3)C2=O)CC1 [Compound 4, 5-(3,4-difluorobenzyl)-8-((1r,4r)-4-methylcyclohexyl)-6,9-dioxo-2,5,8-triazaspiro[3.5]nonane-2-carbaldehyde]
